According to patent US11993599B2, “Therapeutic compounds” (Genentech, Inc., priority 2021, dated 2024):

Assays:
BRG1 = molecular target: T1, BRG1 (Homo sapiens, UniProt P51532); assay: Immunofluorescence assay for BRG1 degradation in SW1573 cells; format: cell-based; details: 20 hours incubation; for DC50: immunofluorescence mean nuclear signal, read-out: BRG1 IF Degradation IC50; for Dmax: SW1573, 20 h, normalized to a known degrader control, read-out: BRG1 IF Degradation Sinf (%)
T1 construct: either BRM primary antibody (Cell signaling Cat #11966) or BRG primary antibody (Abcam, ab 110641); endogenous in cells; host or cells: SW1573
Summary of the method: (§1)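 SW1573 cells treated with compound for 20 h, then fixed, permeabilized and immunostained for BRM or BRG1 with Hoechst nuclear counterstain. Mean nuclear intensity per cell quantified by high-content imaging; data normalized to a reference degrader control, with floating-maximum curve fits giving IC50 and Dmax.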

BRM = BRM (Homo sapiens, UniProt P51531); assay: Immunofluorescence assay for BRM degradation in SW1573 cells; format: cell-based; parameters: treated overnight at 4° C. with either BRM primary antibody (Cell signaling Cat #11966) or BRG primary antibody; endogenous in cells; host or cells: SW1573; details: 20 hours incubation; for DC50: immunofluorescence mean nuclear signal, read-out: BRM IF Degradation IC50; for BRM IF Degradation Sinf (%): normalized to a known degrader control
Summary of the method: as §1

BRM, sequence (P51531 whole entry): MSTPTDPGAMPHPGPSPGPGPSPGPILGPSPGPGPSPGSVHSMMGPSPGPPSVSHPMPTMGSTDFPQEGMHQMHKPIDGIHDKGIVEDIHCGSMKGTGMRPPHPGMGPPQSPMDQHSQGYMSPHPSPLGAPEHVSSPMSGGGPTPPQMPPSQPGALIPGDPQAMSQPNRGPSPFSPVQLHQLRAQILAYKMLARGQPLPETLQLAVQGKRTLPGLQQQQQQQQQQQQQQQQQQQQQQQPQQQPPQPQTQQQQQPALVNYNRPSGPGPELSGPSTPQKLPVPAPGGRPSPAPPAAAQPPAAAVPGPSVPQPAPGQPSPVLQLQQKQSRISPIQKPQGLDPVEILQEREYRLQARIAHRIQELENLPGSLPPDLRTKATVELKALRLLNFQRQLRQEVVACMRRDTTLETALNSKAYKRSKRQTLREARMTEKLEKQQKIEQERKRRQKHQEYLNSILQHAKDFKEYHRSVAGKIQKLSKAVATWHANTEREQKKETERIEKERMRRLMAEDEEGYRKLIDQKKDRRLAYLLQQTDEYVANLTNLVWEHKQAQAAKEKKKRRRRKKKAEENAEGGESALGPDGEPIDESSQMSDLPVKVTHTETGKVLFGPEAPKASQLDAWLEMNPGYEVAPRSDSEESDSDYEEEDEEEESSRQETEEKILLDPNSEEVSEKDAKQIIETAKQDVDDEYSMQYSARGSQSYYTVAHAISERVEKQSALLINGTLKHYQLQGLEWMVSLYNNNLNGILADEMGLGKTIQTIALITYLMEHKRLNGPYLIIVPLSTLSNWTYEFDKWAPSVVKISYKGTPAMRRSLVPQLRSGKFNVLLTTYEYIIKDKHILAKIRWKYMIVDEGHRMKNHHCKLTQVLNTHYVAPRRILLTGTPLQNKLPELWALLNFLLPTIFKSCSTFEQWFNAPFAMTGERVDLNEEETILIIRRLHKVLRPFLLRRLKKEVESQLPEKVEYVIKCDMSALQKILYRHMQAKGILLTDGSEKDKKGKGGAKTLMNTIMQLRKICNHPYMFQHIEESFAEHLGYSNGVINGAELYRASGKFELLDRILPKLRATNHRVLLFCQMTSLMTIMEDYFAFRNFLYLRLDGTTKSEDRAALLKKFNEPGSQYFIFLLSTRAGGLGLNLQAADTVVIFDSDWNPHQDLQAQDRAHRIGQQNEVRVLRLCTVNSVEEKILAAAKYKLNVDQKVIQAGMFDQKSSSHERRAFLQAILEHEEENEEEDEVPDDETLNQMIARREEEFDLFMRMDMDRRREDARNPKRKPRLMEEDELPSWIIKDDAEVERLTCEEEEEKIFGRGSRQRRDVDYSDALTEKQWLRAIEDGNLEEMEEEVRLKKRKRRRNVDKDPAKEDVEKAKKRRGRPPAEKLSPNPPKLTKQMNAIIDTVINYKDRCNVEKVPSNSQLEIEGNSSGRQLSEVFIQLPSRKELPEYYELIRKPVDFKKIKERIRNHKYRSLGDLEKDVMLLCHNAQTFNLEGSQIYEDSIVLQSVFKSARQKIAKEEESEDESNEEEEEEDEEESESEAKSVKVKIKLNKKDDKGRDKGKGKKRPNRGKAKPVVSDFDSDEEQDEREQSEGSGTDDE
T1 sequence (P51532 whole entry): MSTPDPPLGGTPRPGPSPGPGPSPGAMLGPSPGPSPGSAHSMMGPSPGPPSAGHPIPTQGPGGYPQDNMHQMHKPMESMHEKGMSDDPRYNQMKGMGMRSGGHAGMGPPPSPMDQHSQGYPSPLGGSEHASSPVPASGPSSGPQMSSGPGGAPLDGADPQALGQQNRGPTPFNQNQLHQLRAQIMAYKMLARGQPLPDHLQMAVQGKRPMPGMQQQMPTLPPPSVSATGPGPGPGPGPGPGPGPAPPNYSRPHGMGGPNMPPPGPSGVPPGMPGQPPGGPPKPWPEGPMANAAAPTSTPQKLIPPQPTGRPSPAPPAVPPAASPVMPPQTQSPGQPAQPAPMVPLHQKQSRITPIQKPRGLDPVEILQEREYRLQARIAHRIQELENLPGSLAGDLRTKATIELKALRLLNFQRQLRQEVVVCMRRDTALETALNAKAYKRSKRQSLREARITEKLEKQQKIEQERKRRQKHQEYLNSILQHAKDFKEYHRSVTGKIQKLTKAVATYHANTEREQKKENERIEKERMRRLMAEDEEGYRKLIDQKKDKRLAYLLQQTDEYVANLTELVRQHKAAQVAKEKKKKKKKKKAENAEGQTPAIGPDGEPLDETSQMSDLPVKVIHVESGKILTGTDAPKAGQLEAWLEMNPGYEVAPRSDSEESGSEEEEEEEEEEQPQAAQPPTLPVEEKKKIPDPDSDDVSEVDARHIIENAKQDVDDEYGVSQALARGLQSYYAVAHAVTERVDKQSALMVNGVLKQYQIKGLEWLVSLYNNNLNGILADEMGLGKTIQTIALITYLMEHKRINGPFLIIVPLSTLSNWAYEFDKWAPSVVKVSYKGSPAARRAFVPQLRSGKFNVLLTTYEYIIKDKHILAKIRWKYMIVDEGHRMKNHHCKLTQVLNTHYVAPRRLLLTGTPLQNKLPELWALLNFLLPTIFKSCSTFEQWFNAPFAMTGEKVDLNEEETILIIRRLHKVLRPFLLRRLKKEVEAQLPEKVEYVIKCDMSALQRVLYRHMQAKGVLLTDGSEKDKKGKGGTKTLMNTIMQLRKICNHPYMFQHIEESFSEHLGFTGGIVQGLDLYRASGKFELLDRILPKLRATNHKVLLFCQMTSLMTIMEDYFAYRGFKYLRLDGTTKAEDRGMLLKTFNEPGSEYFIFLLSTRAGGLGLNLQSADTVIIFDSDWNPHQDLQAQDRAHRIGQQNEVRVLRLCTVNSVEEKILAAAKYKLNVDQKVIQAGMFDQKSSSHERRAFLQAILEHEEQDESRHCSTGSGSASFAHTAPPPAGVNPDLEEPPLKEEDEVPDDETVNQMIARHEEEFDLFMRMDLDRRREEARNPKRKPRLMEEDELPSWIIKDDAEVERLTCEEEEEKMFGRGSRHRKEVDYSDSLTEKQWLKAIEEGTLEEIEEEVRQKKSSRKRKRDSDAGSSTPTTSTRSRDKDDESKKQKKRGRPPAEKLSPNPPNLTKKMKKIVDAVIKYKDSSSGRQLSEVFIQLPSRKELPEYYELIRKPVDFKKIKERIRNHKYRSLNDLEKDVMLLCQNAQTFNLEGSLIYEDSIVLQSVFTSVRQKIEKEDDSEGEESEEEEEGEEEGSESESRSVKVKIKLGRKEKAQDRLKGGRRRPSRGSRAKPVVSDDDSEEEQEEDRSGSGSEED

SMILES | DC50 (BRG1) | Dmax (BRG1) | DC50 (BRM) | BRM IF Degradation Sinf (%) (BRM)
Nc1nnc(-c2ccccc2O)cc1N1CC2CCC(C1)N2c1ccnc(C#CCN2CC3(CC3)C2)c1 [Compound 233, 2-[6-amino-5-[8-[2-[3-(5-azaspiro[2.3]hexan-5-yl)prop-1-ynyl]-4-pyridyl]-3,8-diazabicyclo[3.2.1]octan-3-yl]pyridazin-3-yl]phenol] | < 0.01 µM | 30 to 70% | < 0.01 µM | E (E indicates −30%-−70%)
CC1CCCN(CC#Cc2cc(N3C4CCC3CN(c3cc(-c5ccccc5O)nnc3N)C4)ccn2)C1 (centres unmarked) [Compound 61, 2-[6-amino-5-[8-[2-[3-(3-methyl-1-piperidyl)prop-1-ynyl]-4-pyridyl]-3,8-diazabicyclo[3.2.1]octan-3-yl]pyridazin-3-yl]phenol] | < 0.01 µM | 30 to 70% | < 0.01 µM | E (E indicates −30%-−70%)
Nc1nnc(-c2ccccc2O)cc1N1CC2CCC(C1)N2c1ccnc(C#CCN2CC(c3ccccc3)C2)c1 [Compound 234, 2-[6-amino-5-[8-[2-[3-(3-phenylazetidin-1-yl)prop-1-ynyl]-4-pyridyl]-3,8-diazabicyclo[3.2.1]octan-3-yl]pyridazin-3-yl]phenol] | 0.01 to 0.1 µM | 71 to 120% | 0.01 to 0.1 µM | E (E indicates −30%-−70%)
CN(CC#Cc1cc(N2C3CCC2CN(c2cc(-c4ccccc4O)nnc2N)C3)ccn1)C1CCS(=O)(=O)C1 (centres unmarked) [Compound 51, 2-[6-amino-5-[8-[2-[3-[(1,1-dioxothiolan-3-yl)-methyl-amino]prop-1-ynyl]-4-pyridyl]-3,8-diazabicyclo[3.2.1]octan-3-yl]pyridazin-3-yl]phenol] | > 0.1 µM | 30 to 70% | > 0.1 µM | E (E indicates −30%-−70%)
CC(C)(N)C#Cc1cc(N2C3CCC2CN(c2cc(-c4ccccc4O)nnc2N)C3)ccn1 [Compound 36, 2-[6-amino-5-[8-[2-(3-amino-3-methyl-but-1-ynyl)-4-pyridyl]-3,8-diazabicyclo[3.2.1]octan-3-yl]pyridazin-3-yl]phenol] | 0.01 to 0.1 µM | 30 to 70% | 0.01 to 0.1 µM | E (E indicates −30%-−70%)
Nc1nnc(-c2ccccc2O)cc1N1CC2CCC(C1)N2c1ccnc(C#CCN2CC(O)C2)c1 [Compound 142, 1-[3-[4-[3-[3-amino-6-(2-hydroxyphenyl)pyridazin-4-yl]-3,8-diazabicyclo[3.2.1]octan-8-yl]-2-pyridyl]prop-2-ynyl]azetidin-3-ol] | 0.01 to 0.1 µM | 30 to 70% | 0.01 to 0.1 µM | E (E indicates −30%-−70%)
Nc1nnc(-c2ccccc2O)cc1N1CC2CCC(C1)N2c1ccnc(C#CCN2CCCC(F)(F)CC2)c1 [Compound 189, 2-[6-amino-5-[8-[2-[3-(4,4-difluoroazepan-1-yl)prop-1-ynyl]-4-pyridyl]-3,8-diazabicyclo[3.2.1]octan-3-yl]pyridazin-3-yl]phenol] | < 0.01 µM | 30 to 70% | < 0.01 µM | F (F indicates −71%-−120%)
Nc1nnc(-c2ccccc2O)cc1N1CC2CCC(C1)N2c1ccnc(C#CCNC(=O)C2CCNCC2)c1 [Compound 35, N-[3-[4-[3-[3-amino-6-(2-hydroxyphenyl)pyridazin-4-yl]-3,8-diazabicyclo[3.2.1]octan-8-yl]-2-pyridyl]prop-2-ynyl]piperidine-4-carboxamide] | > 0.1 µM |  | > 0.1 µM | E (E indicates −30%-−70%)
Nc1nnc(-c2ccccc2O)cc1N1CC2CCC(C1)N2c1ccnc(C#CCN2CC(Oc3ccccc3)C2)c1 [Compound 226, 2-[6-amino-5-[8-[2-[3-(3-phenoxyazetidin-1-yl)prop-1-ynyl]-4-pyridyl]-3,8-diazabicyclo[3.2.1]octan-3-yl]pyridazin-3-yl]phenol] | < 0.01 µM | 30 to 70% | 0.01 to 0.1 µM | E (E indicates −30%-−70%)
